Source: ChEMBL document CHEMBL5727021, “Oxepan-2-yl-pyrazol-4-yl-heterocyclyl-carboxamide compounds and methods of use” (2018)

Molecular target: Serine/threonine-protein kinase pim-1 (Homo sapiens, UniProt P11309)
Experiment: Biological Assay: Determination of the Pim kinase activity of a Formula I compound is possible by a number of direct and indirect detection methods. Certain exemplary compounds described herein were assayed for their Pim kinase binding activity, including isoforms Pim-1, Pim-2, andPim-3, (Example 901) and in vitro activity against tumor cells (Example 902).
Assay type: cell-based

Sequence of Serine/threonine-protein kinase pim-1 (P11309 whole entry, canonical isoform): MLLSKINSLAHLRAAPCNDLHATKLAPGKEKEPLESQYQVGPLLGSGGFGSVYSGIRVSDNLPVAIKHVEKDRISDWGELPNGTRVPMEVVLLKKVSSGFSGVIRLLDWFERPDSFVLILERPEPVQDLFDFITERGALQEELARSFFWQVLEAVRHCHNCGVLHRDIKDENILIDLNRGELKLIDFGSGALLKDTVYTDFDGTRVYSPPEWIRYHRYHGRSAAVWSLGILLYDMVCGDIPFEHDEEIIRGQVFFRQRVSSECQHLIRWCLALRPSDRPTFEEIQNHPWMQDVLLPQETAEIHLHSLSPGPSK

SMILES: N[C@@H]1CC[C@@H](c2c(NC(=O)c3csc(-c4c(F)cccc4F)n3)cnn2CC(F)F)OC[C@H]1F
- Ki: 47 pM
